Measured values published in PubChem BioAssay AID212 (DTP/NCI, 2004).
Several values for one entry are separate records, joined by “and”; a condition that tells them apart may be missing. Equal values may be shown once. Inconclusive results are not listed.

Test system: BDF1 mice, colon carcinoma 38 sc, T/C %
Experiment: NCI In Vivo Anticancer Drug Screen. Data for tumor model Colon Carcinoma 38 (subcutaneous) in B6D2F1 (BDF1) mice
Conditions: endpoint: median tumor weight (est.), higher = larger tumour
Experimental: The antitumor activity of compounds was measured in mice bearing transplantable tumors. Survival or tumor size were measured and the results are expressed as the measurement made in the treated group (T) divided by the measurement made in the vehicle treated control group (C). The tumor model used in this assay is Colon Carcinoma 38 (subcutaneous) in B6D2F1 (BDF1) mice

[1] = dose: 12.5 mg/kg/injection, schedule: Q07DX002 (ip), vehicle: saline with Tween-80
[2] = dose: 50.0 mg/kg/injection, schedule: Q07DX002 (ip), vehicle: saline with Tween-80
[3] = dose: 100.0 mg/kg/injection, schedule: Q07DX002 (ip), vehicle: saline with Tween-80
[4] = dose: 50.0 mg/kg/injection, schedule: Q07DX002 (ip), vehicle: saline
[5] = dose: 100.0 mg/kg/injection, schedule: Q07DX002 (ip), vehicle: saline
[6] = dose: 25.0 mg/kg/injection, schedule: Q07DX002 (ip), vehicle: saline with Tween-80
[7] = dose: 200.0 mg/kg/injection, schedule: Q07DX002 (ip), vehicle: saline with Tween-80
[8] = dose: 400.0 mg/kg/injection, schedule: Q07DX002 (ip), vehicle: saline with Tween-80

O=C(O)C1CC1.[Ag]
T/C (dose: 6.25 mg/kg/injection, schedule: Q07DX002 (ip), vehicle: distilled water + Tween-80): 119 % of control | T/C (dose: 6.25 mg/kg/injection, schedule: Q07DX002 (ip), vehicle: water): 108 % of control | T/C (dose: 12.5 mg/kg/injection, schedule: Q07DX002 (ip), vehicle: water): 84 % of control | T/C (dose: 25.0 mg/kg/injection, schedule: Q07DX002 (ip), vehicle: distilled water + Tween-80): 87 % of control

Cc1cc2cc3cc(C)c(N)cc3nc2cc1N
T/C (dose: 6.25 mg/kg/injection, schedule: Q07DX002 (ip), vehicle: saline with Tween-80): 95 % of control | T/C [1]: 109 % of control | T/C [2]: 54 % of control | T/C [3]: 89 % of control

CCCCCCCCCCCCCCC/C([O-])=N/[N+](C)(C)CC(C)O (stereo not given)
T/C (dose: 25.0 mg/kg/injection, schedule: Q01DX001 (ip), vehicle: saline): 164 % of control | T/C (dose: 200.0 mg/kg/injection, schedule: Q01DX001 (ip), vehicle: saline): 120 % of control | T/C (dose: 400.0 mg/kg/injection, schedule: Q01DX001 (ip), vehicle: saline): 85 % of control

CC(C)(O)/C=C/C(=O)[C@](C)(O)[C@H]1[C@H](O)C[C@@]2(C)[C@@H]3CC=C4[C@@H](C[C@H](O)C(=O)C4(C)C)[C@]3(C)C(=O)C[C@]12C
T/C (dose: 0.25 mg/kg/injection, schedule: Q07DX002 (ip), vehicle: saline + Tween-80 + alcohol): 95 % of control | T/C (dose: 0.5 mg/kg/injection, schedule: Q07DX002 (ip), vehicle: saline + Tween-80 + alcohol): 106 % of control | T/C (dose: 1.0 mg/kg/injection, schedule: Q07DX002 (ip), vehicle: saline + Tween-80 + alcohol): 65 % of control

CONc1ccn(C2OC(CO)C(O)C2O)c(=O)n1 (stereo not given)
T/C [4]: 92 % of control and 101 % of control | T/C [5]: 113 % of control | T/C (dose: 200.0 mg/kg/injection, schedule: Q07DX002 (ip), vehicle: saline): 124 % of control | T/C (dose: 400.0 mg/kg/injection, schedule: Q07DX002 (ip), vehicle: saline): 91 % of control

COc1cc2c(c(OC)c1OC)-c1ccc(OC)c(=O)cc1[C@@H](NC(C)=O)CC2
T/C (dose: 0.12 mg/kg/injection, schedule: Q07DX002 (ip), vehicle: saline): 105 % of control | T/C (dose: 0.25 mg/kg/injection, schedule: Q07DX002 (ip), vehicle: saline): 121 % of control | T/C (dose: 0.37 mg/kg/injection, schedule: Q07DX002 (ip), vehicle: saline): 119 % of control | T/C (dose: 0.75 mg/kg/injection, schedule: Q07DX002 (ip), vehicle: saline): 69 % of control | T/C (dose: 1.0 mg/kg/injection, schedule: Q07DX002 (ip), vehicle: saline): 159 % of control | T/C (dose: 1.5 mg/kg/injection, schedule: Q07DX002 (ip), vehicle: saline): 87 % of control | T/C (dose: 1.56 mg/kg/injection, schedule: Q07DX002 (ip), vehicle: saline): 95 % of control | T/C (dose: 3.0 mg/kg/injection, schedule: Q07DX002 (ip), vehicle: saline): 87 % of control | T/C (dose: 4.0 mg/kg/injection, schedule: Q07DX002 (ip), vehicle: saline): 111 % of control | T/C (dose: 6.0 mg/kg/injection, schedule: Q07DX002 (ip), vehicle: saline): 5 % of control

CC1CN1P1(N2CC2C)=NP(N2CC2C)(N2CC2C)=NP(N2CC2C)(N2CC2C)=N1 (stereo not given)
T/C (dose: 6.25 mg/kg/injection, schedule: Q07DX002 (ip), vehicle: saline): 103 % of control | T/C (dose: 12.5 mg/kg/injection, schedule: Q07DX002 (ip), vehicle: saline): 104 % of control | T/C (dose: 25.0 mg/kg/injection, schedule: Q07DX002 (ip), vehicle: saline): 111 % of control | T/C [4]: 155 % of control | T/C [5]: 70 % of control and 94 % of control

CCOC(=O)N1CCc2nc3ccc(Cl)cc3cc21
T/C [6]: 68 % of control | T/C [2]: 68 % of control | T/C [3]: 166 % of control | T/C [7]: 79 % of control | T/C [8]: 111 % of control

CC(=O)Nc1ccc(O)c(O)c1
T/C [1]: 112 % of control | T/C [6]: 86 % of control | T/C [2]: 100 % of control and 102 % of control | T/C [3]: 66 % of control and 83 % of control | T/C [7]: 90 % of control and 95 % of control | T/C [8]: 74 % of control and 75 % of control and 86 % of control | T/C (dose: 800.0 mg/kg/injection, schedule: Q07DX002 (ip), vehicle: saline with Tween-80): 72 % of control
